These results are taken from PMC8995209 (Cell, 2022).

Structures are written as SMILES.

This assay addresses iaaH (Agrobacterium tumefaciens, UniProt P0A2X2). Type of assay: cell-based. To be noted: hydrolysis to NAA; 48 h conditioning.

Chain of iaaH (P0A2X2 whole entry): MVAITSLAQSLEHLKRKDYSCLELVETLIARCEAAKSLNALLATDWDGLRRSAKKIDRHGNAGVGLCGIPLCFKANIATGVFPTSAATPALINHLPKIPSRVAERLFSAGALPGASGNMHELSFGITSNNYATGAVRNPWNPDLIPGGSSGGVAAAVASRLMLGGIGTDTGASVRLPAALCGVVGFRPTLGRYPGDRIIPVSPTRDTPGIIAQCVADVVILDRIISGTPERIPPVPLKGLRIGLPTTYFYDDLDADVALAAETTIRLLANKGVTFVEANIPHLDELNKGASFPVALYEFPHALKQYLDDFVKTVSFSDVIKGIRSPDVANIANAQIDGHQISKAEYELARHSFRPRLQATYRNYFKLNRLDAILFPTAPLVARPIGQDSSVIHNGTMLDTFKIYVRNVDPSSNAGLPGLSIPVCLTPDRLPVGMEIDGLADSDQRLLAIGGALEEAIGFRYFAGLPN

As for `NC(=O)Cc1cccc2ccccc12` [NAM, 1-naphthaleneacetamide], the “conditioned medium of iaaH-expressing CHO-K1 cells, auxin read out by Receiver c” value is “also able to produce the auxin NAA”.
